From patent publication US7951399B2, “Process for activation of drugs in a vibrational mill” (Eurand Pharmaceuticals Ltd., priority 2001, dated 2011)
≈ marks a conversion by molar mass, not a printed value.

Experiment: physchem

solubility: 73 µg/mL (≈ 354 µM)
Compound: CC(C)Cc1ccc(C(C)C(=O)O)cc1 (stereo not shown) [Ibuprofen]
